This is an account of results in patent US9394539B1, “Survival motor neuron gene (SMN2) mRNA constructs for post-transcription regulation” (PTC Therapeutics, Inc., priority 2007, dated 2016).

Series [1] has as its system 5′-UTR and 3′-UTR of the target SMN2 mRNA. The series can be described thus: Luciferase reporter gene screening assay in stable 293H cells (fLuc flanked by SMN2 5′-UTR and 3′-UTR). In kind it is cell-based, human. Particulars: 7.5 μM test concentration, 24 hours, vs negative control (0.5% DMSO). The method, then: Stable 293H cell lines containing the firefly luciferase (fLuc) gene flanked by one of SMN1 or SMN2 5′-UTR and 3′-UTR were cultured in DMEM medium supplemented with 10% FBS and 200 ug/mL hygromycin in Fisher T175 flasks. The cells were passaged every 4 days at 1:10 dilution. Cultures are kept in a 37° C. and 5% CO2 incubator. The cells were scaled-up over a three day period before performing the assay. Two confluent T175 flasks were split into twenty T175 flasks (1:10 dilution). Cells were harvested from each confluent flask by removing all of the media and adding 4 mL of warmed trypsin to dislodge the cells. After the cells were dislodged, 16 mL of selective media was added for a final volume of 20 mL. The cells were expanded by adding 2 mL of the harvested cells into ten new T175 flasks plus 25 ml, of selective media. The twenty new flasks are placed into the 37° C., 5% CO2 incubator. On the day the assay was performed, the media was removed from the flasks and 3 mL of warmed trypsin was added to dislodge the cells. After the cells were dislodged, 10 mL of nonselective media was to the flask. This was repeated for all twenty flasks and combined into one flask. 100 μL of the above cell culture plus 100 μL of Trypan Blue stain was counted on a hemocytometer. Cells were plated in the presence of 2 μL of a compound to be tested (at final concentration of 7.5 μM with 0.5% DMSO).
The firefly luciferase substrate used was Luc Lite Plus Packard #6016969. Luciferase activity was immediately assayed using a ViewLux Imaging system (Perkin Elmer).
The screening assay was performed by preparing a plates containing test compounds and controls, including wells that contained only vehicle or a high inhibitor concentration and wells that provided an 8-point dose response curve of puromycin, a non-specific standard control inhibitor. The cells were grown overnight in the presence of compounds or controls at 37° C. in 5% CO2. […] After 24 hours, the amount of luminescence was determined using a ViewLux Imaging system (Perkin Elmer). […]
(A reporter such as luciferase makes a cellular process visible.)

Series [2] can be described thus: CellTiter-Glo cytotoxicity assay, MC-IXC cells. In kind it is cell-based. To be noted: human, MC-IXC neuroblastoma cells, CellTiter-Glo (ATP). Here is the method: (§1) To evaluate cytotoxicity of the compounds in the neuroblastoma MC-IXC cell line, the CellTiter-Glo assay (Promega) was utilized. CellTiter-Glo determines the number of viable cells in culture based on quantification of the ATP present, which signals the presence of metabolically active cells. A reduction in cellular ATP is indicative of a cytotoxic or cytostatic effect. The compounds are tested in a 7-point dose response from 30 μM to 0.38 μM. Doxorubicin, a known cytotoxic compound, are used to address the sensitivity of the tested cell line. For relatively sensitive cell lines, such as U937 (a human monocyte cell line), the CC50 of doxorubicin ranges from 4 to 10 nM.

Series [3] in a line: CellTiter-Glo cytotoxicity assay, U937 cells. It counts as cell-based. To be noted: human, U937 monocyte cells, relatively sensitive cell line. Here is the method: as §1
Series [4] is described as follows: CellTiter-Glo cytotoxicity assay, Huh7 cells. It counts as cell-based. To be noted: human, Huh7 hepatoblastoma cells, intermediate level of sensitivity. For orientation: ATP-based viability assays read luminescence as a measure of living cells.

The structures appear in SMILES notation.

Regarding `CC(C)(C)C(C)(O)C#Cc1ccccc1` (stereo not drawn) [Cpd 2, 3,4,4-trimethyl-1-phenylpent-1-yn-3-ol], in series [1], the “Ratio (fold increase in target mRNA (SMN2) compared to negative control)” value was “** (two stars (**) represent active compounds with a fold increase ratio in a range greater than 1.6 up to 1.8)”. Turning to `c1ccc(-n2ncc3c(NC4CCCCC4)ncnc32)cc1` [Cpd 4, N-cyclohexyl-1-phenyl-1H-pyrazolo[3,4-d]pyrimidin-4-amine], the “Ratio (fold increase in target mRNA (SMN2) compared to negative control)” value in series [1] is “** (two stars (**) represent active compounds with a fold increase ratio in a range greater than 1.6 up to 1.8)”.

With `COc1cccc2c1C(=O)c1c(O)c3c(c(O)c1C2=O)C[C@@](O)(C(=O)CO)C[C@@H]3O[C@H]1C[C@H](N)[C@H](O)[C@H](C)O1` [doxorubicin], the CC50 (usually the concentration giving 50% cytotoxicity) in series [2] was 12 nM; in series [3], 4 to 10 nM; in series [4], 70 to 300 nM. In the case of `Cc1ccc2nc(-c3ccc(/N=C/c4ccc(Br)s4)cc3)sc2c1` [Cpd 1, (E)-N-((5-bromothiophen-2-yl)methylene)-4-(6-methylbenzo[d]thiazol-2-yl)aniline], the “Ratio (fold increase in target mRNA (SMN2) compared to negative control)” value in series [1] is listed as “* (one star (*) represents active compounds with a fold increase ratio in a range greater than 1.3 up to 1.6)”.
